Values quoted from earlier work in patent US8222270B2 (Medicis Pharmaceutical Corporation, priority 2008, dated 2012).

Test system: actinic keratoses
Conditions: cited from earlier work

O=c1[nH]cc(F)c(=O)[nH]1 [Formulation 5-FU, 5-fluorouracil]
Sustained clearance of the total treatment field, patients (12-month follow-up): 33%
Sustained clearance rate of initially cleared individual lesions (12-month follow-up): 54%
Histological clearance rate (in vivo): 67%
Initial clinical clearance, patients (in vivo): 96%
